In paper PMC12647218 (Scientific Reports, 2025):

Assays:
[1] = molecular target: Acetylcholinesterase from Electrophorus electricus (electric eel) (Electrophorus electricus, UniProt O42275); assay: biochemical
[2] = molecular target: Butyrylcholinesterase from equine serum (Equus caballus, UniProt P81908); assay: BChE inhibition, modified colorimetric Ellman method; format: biochemical
hMAO-A = molecular target: T1, hMAO-A (Homo sapiens, UniProt P21397); assay: hMAO-A inhibition, in vitro fluorometric technique; format: biochemical
T1 sequence (P21397 1-527): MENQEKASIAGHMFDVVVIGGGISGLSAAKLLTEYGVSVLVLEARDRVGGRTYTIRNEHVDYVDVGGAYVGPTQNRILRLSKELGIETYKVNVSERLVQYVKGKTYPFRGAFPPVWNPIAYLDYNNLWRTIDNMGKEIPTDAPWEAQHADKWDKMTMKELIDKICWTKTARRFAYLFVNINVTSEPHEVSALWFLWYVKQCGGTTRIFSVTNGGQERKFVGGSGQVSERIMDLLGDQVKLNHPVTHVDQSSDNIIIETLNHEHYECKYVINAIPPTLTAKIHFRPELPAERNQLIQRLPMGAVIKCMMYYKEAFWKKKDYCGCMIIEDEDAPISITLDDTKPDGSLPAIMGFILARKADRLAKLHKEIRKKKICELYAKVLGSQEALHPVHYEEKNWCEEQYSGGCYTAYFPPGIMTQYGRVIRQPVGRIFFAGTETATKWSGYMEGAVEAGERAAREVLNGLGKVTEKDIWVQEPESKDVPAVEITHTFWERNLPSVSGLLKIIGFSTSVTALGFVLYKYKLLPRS

Sequence of Butyrylcholinesterase from equine serum (P81908 whole entry): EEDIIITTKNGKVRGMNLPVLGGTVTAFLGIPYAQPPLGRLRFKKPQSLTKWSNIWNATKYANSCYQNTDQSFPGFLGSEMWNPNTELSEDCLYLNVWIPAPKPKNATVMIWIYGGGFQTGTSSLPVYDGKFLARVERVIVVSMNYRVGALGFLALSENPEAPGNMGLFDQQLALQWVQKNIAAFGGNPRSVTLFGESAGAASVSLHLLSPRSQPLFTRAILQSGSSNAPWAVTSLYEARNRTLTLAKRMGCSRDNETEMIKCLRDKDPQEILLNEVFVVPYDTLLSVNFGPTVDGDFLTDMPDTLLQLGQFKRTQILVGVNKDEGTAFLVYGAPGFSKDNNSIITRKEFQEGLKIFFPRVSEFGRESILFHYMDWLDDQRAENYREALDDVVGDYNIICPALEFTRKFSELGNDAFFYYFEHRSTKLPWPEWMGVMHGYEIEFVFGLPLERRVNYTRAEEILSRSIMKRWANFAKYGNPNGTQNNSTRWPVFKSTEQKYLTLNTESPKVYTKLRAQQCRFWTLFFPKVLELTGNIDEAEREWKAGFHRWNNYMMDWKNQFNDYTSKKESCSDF
Sequence of Acetylcholinesterase from Electrophorus electricus (electric eel) (O42275 24-633): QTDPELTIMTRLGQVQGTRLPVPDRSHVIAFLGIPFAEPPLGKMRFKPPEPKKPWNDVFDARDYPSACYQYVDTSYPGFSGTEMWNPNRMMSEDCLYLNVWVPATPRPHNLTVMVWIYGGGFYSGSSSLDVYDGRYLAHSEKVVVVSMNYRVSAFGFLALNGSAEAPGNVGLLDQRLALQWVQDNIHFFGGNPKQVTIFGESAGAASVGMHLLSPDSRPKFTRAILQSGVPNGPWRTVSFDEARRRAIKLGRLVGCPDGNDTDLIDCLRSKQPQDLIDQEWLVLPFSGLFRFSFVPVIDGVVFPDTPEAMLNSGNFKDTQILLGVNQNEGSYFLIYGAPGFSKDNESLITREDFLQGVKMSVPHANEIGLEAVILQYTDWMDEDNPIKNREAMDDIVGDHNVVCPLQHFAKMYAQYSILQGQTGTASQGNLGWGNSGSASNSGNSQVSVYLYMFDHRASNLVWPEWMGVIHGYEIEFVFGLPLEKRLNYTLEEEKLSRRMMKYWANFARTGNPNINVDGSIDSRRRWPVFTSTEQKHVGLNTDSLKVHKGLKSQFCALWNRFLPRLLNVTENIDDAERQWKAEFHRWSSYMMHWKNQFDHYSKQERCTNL

| SMILES | IC50 [1] [µM] | Ki [1] [µM] | IC50 [2] [µM] | Ki [2] [µM] | IC50 (hMAO-A) [µM] |
| --- | --- | --- | --- | --- | --- |
| COc1cccc2cc(/C(C)=N/NC(=O)c3cc4ccccc4cc3O)c(=O)oc12 [Compound 3a, (E)-3-Hydroxy-N’-(1-(8-methoxy-2-oxo-2 H-chromen-3-yl)ethylidene)-2-naphthohydrazide] | 7.4 ± 0.14 | 6.03 ± 0.4 | 74.4 ± 4.98 | 63.3 ± 5.38 | 1.44 ± 0.03 |
| COc1cccc2cc(/C(C)=N/NC(=O)Cn3ccc4cccnc43)c(=O)oc12 [Compound 3b, (E)-N’-(1-(8-methoxy-2-oxo-2 H-chromen-3-yl)ethylidene)-2-(1 H-pyrrolo[2,3-b]pyridin-1-yl)acetohydrazide] | 26.5 ± 3.42 | 15.7 ± 1.37 | > 100 | > 100 | 1.97 ± 0.1 |
| COc1cccc2cc(/C(C)=N/NC(=O)c3ccccc3Br)c(=O)oc12 [Compound 3c, (E)-2-bromo-N’-(1-(8-methoxy-2-oxo-2 H-chromen-3-yl)ethylidene)benzohydrazide] | 17 ± 1.9 | 11.3 ± 0.93 | > 100 | > 100 | 2.03 ± 0.08 |
| COc1cccc2cc(/C(C)=N/NC(=O)c3ccccc3C)c(=O)oc12 [Compound 3d, (E)-N’-(1-(8-methoxy-2-oxo-2 H-chromen-3-yl)ethylidene)-2-methylbenzohydrazide] | 20.2 ± 2.67 | 13.5 ± 1.24 | 90.1 ± 3.78 | 69.9 ± 5.75 | 1.73 ± 0.05 |
| COc1cccc2cc(/C(C)=N/NC(=O)c3ccc(C(F)(F)F)cc3)c(=O)oc12 [Compound 3e, (E)-N’-(1-(8-methoxy-2-oxo-2 H-chromen-3-yl)ethylidene)-4-(trifluoromethyl) benzohydrazide] | 8.01 ± 0.7 | 7.38 ± 1.01 | 65.4 ± 4.55 | 57 ± 3.95 | 1.51 ± 0.13 |
| COc1cccc2cc(/C(C)=N/NC(=O)c3ccco3)c(=O)oc12 [Compound 3f, (E)-N’-(1-(8-methoxy-2-oxo-2 H-chromen-3-yl)ethylidene)furan-2-carbohydrazide] | 23.8 ± 2.44 | 19.6 ± 2.44 | 78.2 ± 5.8 | 68.5 ± 5.07 | 3.94 ± 0.43 |
| COc1cccc2cc(/C(C)=N/NC(=O)c3cccc4[nH]ccc34)c(=O)oc12 [Compound 3g, (E)-N’-(1-(8-methoxy-2-oxo-2 H-chromen-3-yl)ethylidene)-1 H-indole-4-carbohydrazide] | 29 ± 4.3 | 21 ± 3.48 | 81.5 ± 6.02 | 73.6 ± 4.66 | 2.08 ± 0.15 |
| COc1cccc2cc(/C(C)=N/NC(=O)c3cccc(Cl)c3)c(=O)oc12 [Compound 3h, (E)-3-chloro-N’-(1-(8-methoxy-2-oxo-2 H-chromen-3-yl)ethylidene)benzohydrazide] | 41.1 ± 3.28 | 25.8 ± 1.97 | 85 ± 3.48 | 77 ± 6.92 | 1.8 ± 0.26 |
| COc1cccc2cc(/C(C)=N/NC(=O)Cc3ccccc3)c(=O)oc12 [Compound 3i, (E)-N’-(1-(8-methoxy-2-oxo-2 H-chromen-3-yl)ethylidene)-2-phenylacetohydrazide] | 18.4 ± 1.98 | 15.4 ± 2.01 | 79.3 ± 5.03 | 70.3 ± 3.57 | 1.87 ± 0.07 |
| COc1cccc2cc(/C(C)=N/NC(=O)c3cccs3)c(=O)oc12 [Compound 3j, (E)-N’-(1-(8-methoxy-2-oxo-2 H-chromen-3-yl)ethylidene)thiophene-2-carbohydrazide] | 21.9 ± 3.24 | 14.6 ± 1.05 | > 100 | > 100 | 2.5 ± 0.31 |
| COc1cccc2cc(/C(C)=N/NC(=O)c3ccc(F)cc3)c(=O)oc12 [Compound 3k, (E)-4-fluoro-N’-(1-(8-methoxy-2-oxo-2 H-chromen-3-yl)ethylidene)benzohydrazide] | 12.4 ± 0.98 | 7.95 ± 0.57 | 71.5 ± 3.68 | 66.1 ± 4.62 | 1.83 ± 0.17 |
| COc1cccc2cc(/C(C)=N/NC(=O)c3ccccn3)c(=O)oc12 [Compound 3l, (E)-N’-(1-(8-methoxy-2-oxo-2 H-chromen-3-yl)ethylidene)picolinohydrazide] | 8.54 ± 1.01 | 7.08 ± 0.64 | 75 ± 5.3 | 69 ± 5.3 | 1.65 ± 0.34 |
| COc1cccc2cc(/C(C)=N/NC(=O)c3ccccc3Cl)c(=O)oc12 [Compound 3m, (E)-2-chloro-N’-(1-(8-methoxy-2-oxo-2 H-chromen-3-yl)ethylidene)benzohydrazide] | 14.8 ± 1.4 | 10.4 ± 0.59 | 82.3 ± 6.9 | 71.4 ± 7.01 | 1.9 ± 0.3 |
